Experimental data as given in patent US10350199B2, “3-(1h-pyrrolo[2,3-b]pyridin-2-yl)-1h-indazoles and therapeutic uses thereof” (Samumed, LLC, priority 2015, dated 2019).

Key:
Assay type in all cases: cell-based
[1] = tested on: primary human fibroblasts derived from IPF patients (LL29 cells) treated with TGF-β1; experiment: Inhibition of the fibrotic process: αSMA staining in TGF-β1 treated LL29 fibroblasts; conditions: Fibroblast; for EC50: 96 h, LL29 cells, TGF-β1 20 ng/mL, 4 days, % αSMA positive cells; for inhibition at 10 µM: read-out: percent inhibition at 10 μM
Experimental: Representative compounds were screened using primary human fibroblasts (derived from IPF patients) treated with TGF-β1 to determine their ability to inhibit the fibrotic process.
LL29 cells are plated at 1,500 cells/well in 80 μL/well F12 medium supplemented with 1% Fetal Bovine Serum. […] Wells treated with TGF-β1 and containing DMSO were used as controls. […] Following incubation for 4 days, SYTOX green nucleic acid stain (Life Technologies [Thermo Fisher Scientific]) was added to the wells at a final concentration of 1 μM and incubated at room temperature for 30 min.

[2] = tested on: Wnt activity (Sp5-Luc reporter, SW480 colon carcinoma cells); experiment: Wnt activity screening assay, Sp5-Luc reporter gene in SW480 cells; conditions: Homo sapiens; for inhibition at 10 µM: SW480, read-out: percent inhibition at 10 μM; for EC50: Sp5-Luc reporter, SW480 cells, overnight incubation
Description: The screening assay for Wnt activity is described as follows. Reporter cell lines can be generated by stably transducing cancer cell lines (e.g., colon cancer) or primary cells (e.g., IEC-6 intestinal cells) with a lentiviral construct that includes a Wnt-responsive promoter driving expression of the firefly luciferase gene.
SW480 colon carcinoma cells were transduced with a lentiviral vector expressing luciferase with a human Sp5 promoter consisting of a sequence of eight TCF/LEF binding sites. SW480 cells stably expressing the Sp5-Luc reporter gene and a hygromycin resistance gene were selected by treatment with 150 μg/mL of hygromycin for 7 days. These stably transduced SW480 cells were expanded in cell culture and used for all further screening activities. […] For Sp5-Luc reporter gene assays, the cells were plated at 4,000 cells/well in 384-well plates with medium containing 1% fetal bovine serum and incubated overnight at 37° C. and 5% CO2. Following incubation, 20 μl of BrightGlo luminescence reagent (Promega) was added to each well of the 384-well assay plates. The plates were placed on an orbital shaker for 2 min and then luminescence was quantified using the Envision (Perkin Elmer) plate reader. Readings were normalized to DMSO only treated cells, and normalized activities were utilized for EC50 calculations using the dose-response log (inhibitor) vs. response -variable slope (four parameters) nonlinear regression feature available in GraphPad Prism 5.0 (or Dotmatics).

[3] = tested on: IL-6 (THP-1 human monocyte cell line); experiment: IL-6 inhibition in LPS-stimulated THP-1 cells (HTRF); conditions: for EC50: IL-6 inhibition, LPS-stimulated THP-1 cells, HTRF; for inhibition at 10 µM: THP-1, read-out: percentage in parentheses beside EC50 >10 (IL-6 inhibition)
Experimental: THP-1 cells were cultured in basal media with 1% FBS for 24 hours before the start of the assay. […] THP-1 cells were plated at 5000 cells/well in the 384-well plates and incubated at 37° C. for 2 h. 500 ng/mL of LPS was added after 2 hours and cells were incubated for another 22 hours at 37° C. Plates were spun in a centrifuge for 1 minute at […] and a mixture of anti-IL6 XL665, and anti-IL6 Cryptate diluted in reconstitution buffer (Cisbio Inc.) was added to each well. Following incubation for 3 hrs at room temperature, Homogeneous Time-Resolved Fluorescence (HTRF) was measured using the Envision (Perkin Elmer) at 665 nm and […]. The ratio of fluorescence at 665 nm to 620 nm was used as a readout for IL6 quantification. All samples were processed in duplicate. Readings were normalized to DMSO treated cells and normalized activities were utilized for EC50 calculations using the dose-response log (inhibitor) vs. response -variable slope (four parameters) nonlinear regression feature available in GraphPad Prism 5.0 (or Dotmatics).

SW480 colon cancer cells = experiment: Cell viability assay (CellTiter-Blue), SW480 cells, four days; conditions: Homo sapiens; for EC50: 96 h, SW480 cell viability, four days, CellTiter-Blue; for inhibition at 10 µM: SW480, read-out: percent inhibition at 10 μM
Experimental: Representative compounds were screened using the following assay procedure to assess the effect on cell viability as described below.
Approximately 2×10^3 SW480 colon cancer cells were seeded into each well and allowed to incubate in the presence or absence of compound for four days at 37° C./5% CO2. Eight replicates of DMSO-treated cells served as controls and cells treated with compound were performed in duplicate.
After incubation, 20 μL of CellTiter-Blue (Promega) was added to each well allowed to incubate for approximately 3 hours. This reagent was a buffered solution which contains resazurin, metabolically active cells were able to reduce rezarurin (blue) into resorufin (pink) which was highly fluorescent. This measured fluorescence was used as a readout for cell viability.

| SMILES | EC50 [2] | EC50 [3] | EC50 (SW480 colon cancer cells) | EC50 [1] | inhibition at 10 µM [1] | inhibition at 10 µM [2] | inhibition at 10 µM [3] | inhibition at 10 µM (SW480 colon cancer cells) |
| --- | --- | --- | --- | --- | --- | --- | --- | --- |
| c1ncc(-c2ccc3[nH]nc(-c4cc5c(-c6ccsc6)ccnc5[nH]4)c3c2)cn1 [Compound 307, 5-(Pyrimidin-5-yl)-3-(4-(thiophen-3-yl)-1H-pyrrolo[2,3-b]pyridin-2-yl)-1H-indazole] | > 10 µM | > 10 µM | > 10 µM | > 10 µM | 0% | 6% | 45.5% | 0% |
| O=C(Cc1ccccc1)Nc1cncc(-c2ccc3[nH]nc(-c4cc5c(-c6ccncc6)ccnc5[nH]4)c3c2)c1 [Compound 122, 2-Phenyl-N-(5-(3-(4-(pyridin-4-yl)-1H-pyrrolo[2,3-b]pyridin-2-yl)-1H-indazol-5-yl)pyridin-3-yl)acetamide] | > 10 µM | > 10 µM | 1.95 µM | 6.18 µM | – | 28.3% | 47.3% | – |
| FC1(F)CCN(Cc2cncc(-c3ccc4[nH]nc(-c5cc6c(N7CCCCC7)ccnc6[nH]5)c4c3)c2)C1 [Compound 194, 5-(5-((3,3-Difluoropyrrolidin-1-yl)methyl)pyridin-3-yl)-3-(4-(piperidin-1-yl)-1H-pyrrolo[2,3-b]pyridin-2-yl)-1H-indazole] | > 10 µM | > 10 µM | > 10 µM | 5.9 µM | – | 26.2% | 33% | 18.5% |
| c1cnc2[nH]c(-c3n[nH]c4ccc(-c5ccncc5)cc34)cc2c1 [Compound 270, 5-(Pyridin-4-yl)-3-(1H-pyrrolo[2,3-b]pyridin-2-yl)-1H-indazole] | > 10 µM | > 10 µM | > 10 µM | 6.52 µM | – | 45.7% | 48.3% | 15.2% |
| c1cc(N2CCCCC2)c2cc(-c3n[nH]c4ccc(-c5cncc(CNCC6CCCC6)c5)cc34)[nH]c2n1 [Compound 193, 1-Cyclopentyl-N-((5-(3-(4-(piperidin-1-yl)-1H-pyrrolo[2,3-b]pyridin-2-yl)-1H-indazol-5-yl)pyridin-3-yl)methyl)methanamine] | > 10 µM | > 10 µM | > 10 µM | > 10 µM | 24.9% | 8% | 18% | 12.5% |
| O=C(Nc1cncc(-c2ccc3[nH]nc(-c4cc5c(-c6ccccc6F)ccnc5[nH]4)c3c2)c1)C1CCCC1 [Compound 78, N-(5-(3-(4-(2-Fluorophenyl)-1H-pyrrolo[2,3-b]pyridin-2-yl)-1H-indazol-5-yl)pyridin-3-yl)cyclopentanecarboxamide] | > 10 µM | > 10 µM | > 10 µM | > 10 µM | 39% | 1.9% | 39.9% | 14.4% |
| Fc1cccc(-c2ccnc3[nH]c(-c4n[nH]c5ccc(-c6ccncc6)cc45)cc23)c1 [Compound 18, 3-(4-(3-Fluorophenyl)-1H-pyrrolo[2,3-b]pyridin-2-yl)-5-(pyridin-4-yl)-1H-indazole] | > 10 µM | 0.995 µM | > 10 µM | > 10 µM | 33.6% | 18% | – | 16.2% |
| CN(C)c1cncc(-c2ccc3[nH]nc(-c4cc5c(N6CCCCC6)ccnc5[nH]4)c3c2)c1 [Compound 175, N,N-Dimethyl-5-(3-(4-(piperidin-1-yl)-1H-pyrrolo[2,3-b]pyridin-2-yl)-1H-indazol-5-yl)pyridin-3-amine] | > 10 µM | > 10 µM | > 10 µM | > 10 µM | 11.3% | 10.7% | 15.2% | 13.1% |
| CC(C)Nc1cncc(-c2ccc3[nH]nc(-c4cc5c(-c6ccccc6F)ccnc5[nH]4)c3c2)c1 [Compound 68, 5-(3-(4-(2-Fluorophenyl)-1H-pyrrolo[2,3-b]pyridin-2-yl)-1H-indazol-5-yl)-N-isopropylpyridin-3-amine] | > 10 µM | 0.384 µM | > 10 µM | > 10 µM | 0% | 18.7% | – | 10.9% |
| CCC(=O)Nc1cncc(-c2ccc3[nH]nc(-c4cc5c(-c6ccccn6)ccnc5[nH]4)c3c2)c1 [Compound 141, N-(5-(3-(4-(Pyridin-2-yl)-1H-pyrrolo[2,3-b]pyridin-2-yl)-1H-indazol-5-yl)pyridin-3-yl)propionamide] | 0.238 µM | > 10 µM | 6.07 µM | 1.66 µM | – | – | 30.3% | – |

More lines, main results first:

| EC50 [2] | EC50 [3] | EC50 (SW480 colon cancer cells) | SMILES | EC50 [1] | inhibition at 10 µM [1] | inhibition at 10 µM [2] | inhibition at 10 µM [3] | inhibition at 10 µM (SW480 colon cancer cells) |
| --- | --- | --- | --- | --- | --- | --- | --- | --- |
| 0.332 µM | 0.047 µM | 0.747 µM | CC(C)CC(=O)Nc1cncc(-c2ccc3[nH]nc(-c4cc5c(-c6cccs6)ccnc5[nH]4)c3c2)c1 [Compound 338, 3-Methyl-N-(5-(3-(4-(thiophen-2-yl)-1H-pyrrolo[2,3-b]pyridin-2-yl)-1H-indazol-5-yl)pyridin-3-yl)butanamide] | 0.58 µM | – | – | – | – |
| > 10 µM | > 10 µM | > 10 µM | CN(C)Cc1cncc(-c2ccc3[nH]nc(-c4cc5c(-c6ccoc6)ccnc5[nH]4)c3c2)c1 [Compound 321, 1-(5-(3-(4-(Furan-3-yl)-1H-pyrrolo[2,3-b]pyridin-2-yl)-1H-indazol-5-yl)pyridin-3-yl)-N,N-dimethylmethanamine] | 1.37 µM | – | 3.7% | 19% | 7.9% |
| > 10 µM | > 10 µM | > 10 µM | c1cc(-c2ccnc3[nH]c(-c4n[nH]c5ccc(-c6cn[nH]c6)cc45)cc23)ccn1 [Compound 571, 5-(1H-Pyrazol-4-yl)-3-(4-(pyridin-4-yl)-1H-pyrrolo[2,3-b]pyridin-2-yl)-1H-indazole] | > 10 µM | 28.3% | 37% | 37% | 23.8% |
| > 10 µM | > 10 µM | > 10 µM | COc1cncc(-c2ccc3[nH]nc(-c4cc5c(-c6ccsc6)ccnc5[nH]4)c3c2)c1 [Compound 676, 5-(5-Methoxypyridin-3-yl)-3-(4-(thiophen-3-yl)-1H-pyrrolo[2,3-b]pyridin-2-yl)-1H-indazole] | 7.78 µM | – | 21% | 38.4% | 0% |
| 0.432 µM | 0.073 µM | 0.872 µM | CC(C)(C)CC(=O)Nc1cncc(-c2ccc3[nH]nc(-c4cc5c(-c6cccs6)ccnc5[nH]4)c3c2)c1 [Compound 352, 3,3-Dimethyl-N-(5-(3-(4-(thiophen-2-yl)-1H-pyrrolo[2,3-b]pyridin-2-yl)-1H-indazol-5-yl)pyridin-3-yl)butanamide] | 0.355 µM | – | – | – | – |
| > 10 µM | > 10 µM | > 10 µM | NC1CN(c2cncc(-c3ccc4[nH]nc(-c5cc6c(N7CCCCC7)ccnc6[nH]5)c4c3)n2)C1 [Compound 606, 1-(6-(3-(4-(Piperidin-1-yl)-1H-pyrrolo[2,3-b]pyridin-2-yl)-1H-indazol-5-yl)pyrazin-2-yl)azetidin-3-amine] | 3.62 µM | – | 20.2% | 39.1% | 10.2% |
